The subject of series [1] is powdery mildew fungus (Blumeria graminis). In words: Test Example 1: controlling effect by seed dressing against wheat powdery mildew. The class given is in vivo. The note with it: 0.15% active ingredient based on weight of dry seeds, inoculated 25 days after sowing, investigated 7 days after inoculation. An excerpt:
(§1) Seeds of wheat (cultivar: chihoku komugi) and a wettable powder prepared according to Formulation Example were placed in a vinyl bag, followed by adding thereto a small volume of water, and they were mixed to conduct seed dressing. On the day after this treatment, the seeds sowed in a plastic pot of 10 cm diameter, and cultivated in a greenhouse. Twenty five days after sowing, the seedlings thus obtained were inoculated with powdery mildew fungus (Blumeria graminis) by sprinkling. Seven days after inoculation, the seedlings were investigated and infection index was estimated according to the criterion shown below, after which the control efficacy (%) was calculated. In this occasion, infection index on the untreated plot was 8.0. As comparative examples, the following compounds described in JP-A-2001-10909 were evaluated. • I: 3′-chloro-4,4′-dimethyl-1,2,3-thiadiazole-5-carboxanilide • II: benzyl 4-isopropyl-1,2,3-thiadiazole-5-carboxylate • III: methyl 4-cyclopropyl-1,2,3-thiadiazole-5-carboxylate • IV: 4-cyclopropyl-1,2,3-thiadiazole-5-carboxylic acid Infection Index • 0: No infection. • 0.5: Lesion area percentage: less than 10% • 1: Lesion area percentage; 10 to less than 20% • 2: Lesion area percentage; 20 to less than 30% • 3: Lesion area percentage; 30 to less than 40% • 4: Lesion area percentage; 40 to less than 50% • 5: Lesion area percentage; 50 to less than 60% • 6: Lesion area percentage; 60 to less than 70% • 7: Lesion area percentage; 70 to less than 80% • 8: Lesion area percentage; 80 to less than 90% • 9: Lesion area percentage; 90 to less than 100% • 10: Lesion area percentage; 100% Control efficacy (%)={1-(infection index on treated plot/infection index on untreated plot)}×100 Rank of Control Efficacy • A: Control efficacy 100-90% • B: Control efficacy 89-80% • C: Control efficacy 79-60% • D: Control efficacy 59-0%

The test system of series [2] is wheat (cultivar: Chihoku Komugi). In words: Test Example 3: phytotoxicity for wheat by treatment of seeds (safety test on plant). The class given is in vivo. The settings on record: wheat seed dressing, 0.15% active ingredient based on weight of dry seeds; 7 and 14 days after sowing. The method, then:
Seeds of wheat (cultivar: Chihoku Komugi) and a wettable powder prepared according to Formulation Example were placed in a vinyl bag, followed by adding thereto a small volume of water, and they were mixed to conduct seed dressing. On the day after this treatment, the seeds sowed in a plastic pot of 10 cm diameter, and cultivated in a greenhouse. Seven days and fourteen days after sowing, phytotoxicity for germination of the seeds and growth at the early stage were evaluated.

The subject of series [3] is powdery mildew fungus (Blumeria graminis). Kind of series: Test Example 2: controlling effect by seed dressing against wheat powdery mildew, long-lasting effect. It is filed as in vivo. The note with it: 0.15% active ingredient based on weight of dry seeds, inoculated 50 days after sowing, investigated 7 days after inoculation.
Description: as §1
Seeds of wheat (cultivar: Chihoku Komugi) and a wettable powder prepared according to Formulation Example were placed in a vinyl bag, followed by adding thereto a small volume of water, and they were mixed to conduct seed dressing. On the day after this treatment, the seeds sowed in a plastic pot of 10 cm diameter, and cultivated in a greenhouse. Fifty days after sowing, the seedlings thus obtained were inoculated with powdery mildew fungus (Blumeria graminis) by sprinkling. Seven days after inoculation, the seedlings were investigated and infection index was estimated according to the criterion shown below, after which the control efficacy (%) was calculated. In this occasion, infection index on the untreated plot was 8.0. As comparative examples, the above-described compounds I, II, III and IV were evaluated.

In the case of `CCCCCCCCOC(=O)c1snnc1C1CC1` [1-8], the “Rank of control efficacy” value in series [1] is recorded as “B or more”. The “phytotoxicity for germination of the seeds and growth at the early stage” value (shortened to “phytotoxicity for germination”) in series [2] was “absolutely no phytotoxicity”.
For `O=C(OCc1cccc(Cl)c1)c1snnc1C1CC1` [1-11] the same measures were “B or more” and “absolutely no phytotoxicity”.
For the compound `O=C(OCc1ccc(Cl)cc1)c1snnc1C1CC1` [1-12], the “Rank of control efficacy” value in series [1] was “B or more”. For the same compound, the “phytotoxicity for germination” value in series [2] was “absolutely no phytotoxicity”.
For `COC(=O)c1ccc(COC(=O)c2snnc2C2CC2)cc1` [1-24], in that order: “B or more” and “absolutely no phytotoxicity”.
For `O=C(OCc1cc(Cl)cc(Cl)c1)c1snnc1C1CC1` [1-30] the same measures were “B or more” and “absolutely no phytotoxicity”.
In the case of `CC(OC(=O)c1snnc1C1CC1)c1ccc(Cl)cc1` (stereo not drawn) [1-44], the “Rank of control efficacy” value in series [1] is “B or more”. In addition, the “phytotoxicity for germination” value in series [2] is recorded as “absolutely no phytotoxicity”.
For `O=C(NCc1ccccc1)c1snnc1C1CC1` [1-53] the same measures were “B or more” and “absolutely no phytotoxicity”.
With `CC(C)(C)c1ccc(CNC(=O)c2snnc2C2CC2)cc1` [1-63], the “Rank of control efficacy” value in series [1] is “B or more”. Further, the “phytotoxicity for germination” value in series [2] was “absolutely no phytotoxicity”.
In general, melting point refers to the temperature, or range, at which the solid turns liquid. The compound `Cc1ccc(NC(=O)c2snnc2C2CC2)cc1Cl` [1-95, 3′-chloro-4-cyclopropyl-4′-methyl-1,2,3-thiadiazole-5-carboxanilide] showed a melting point of 150 to 153 °C. The “Rank of control efficacy” value in series [1] was “B or more”. Moreover, in series [2], the “phytotoxicity for germination” value was “absolutely no phytotoxicity”.
For the compound `COc1ccc(NC(=O)c2snnc2C2CC2)c(OC)c1` [1-96], the “Rank of control efficacy” value in series [1] was “B or more”. Moreover, the “phytotoxicity for germination” value in series [2] is reported as “absolutely no phytotoxicity”.
Take `O=C(O)c1ccccc1NC(=O)c1snnc1C1CC1` [1-98, 2-(4-cyclopropyl-1,2,3-thiadiazol-5-ylcarbonylamino)benzoic acid]: the “Rank of control efficacy” value in series [1] was “B or more”. Besides, in series [2], the “phytotoxicity for germination” value is recorded as “absolutely no phytotoxicity”.
`N#Cc1ccccc1NC(=O)c1snnc1C1CC1` [1-100, 2′-cyano-4-cyclopropyl-1,2,3-thiadiazole-5-carboxanilide] yielded a melting point of 124 °C.
Take `CC(C)Cc1csc(NC(=O)c2snnc2C2CC2)n1` [1-110]: the “Rank of control efficacy” value in series [1] is reported as “B or more”. The “phytotoxicity for germination” value in series [2] was “absolutely no phytotoxicity”.
As for `O=C(NS(=O)(=O)c1ccccc1)c1snnc1C1CC1` [1-121], the “Rank of control efficacy” value in series [1] was “B or more”. In addition, in series [2], the “phytotoxicity for germination” value is on record as “absolutely no phytotoxicity”.
In the case of `COc1ccc(CNC(=O)c2snnc2C2CC2)cc1OC` [1-166], the “Rank of control efficacy” value in series [1] is recorded as “B or more”. Also, the “phytotoxicity for germination” value in series [2] was “absolutely no phytotoxicity”.
As to `O=C(Nc1nc2ccc(Cl)cc2s1)c1snnc1C1CC1` [1-178], the “Rank of control efficacy” value in series [1] and in series [3] was “B or more” throughout.
For `CN(C)c1ccncc1.O=C(Nc1nc2ccc(Cl)cc2s1)c1snnc1C1CC1` [1-179], the “Rank of control efficacy” value in series [1] and in series [3] was “B or more” throughout.
Take `Cc1nc(-c2cccnc2NC(=O)c2snnc2C2CC2)no1` [1-183]: the “Rank of control efficacy” value in series [1] and in series [3] was “B or more” in each case.
Turning to `O=C(Nc1cccc2nnsc12)c1snnc1C1CC1` [1-184], the “Rank of control efficacy” value in series [1] and in series [3] was “B or more” each time.
Regarding `CNC(=O)c1ccccc1NC(=O)c1snnc1C1CC1` [1-189], the “Rank of control efficacy” value in series [1] and in series [3] was “B or more” in each case.
As to `CSc1ccccc1NC(=O)c1snnc1C1CC1` [1-190], the “Rank of control efficacy” value in series [1] and in series [3] was “B or more” each time.
As for `N#Cc1snnc1C1CC1` [3-1, 4-cyclopropyl-1,2,3-thiadiazole-5-carbonitrile], the “Rank of control efficacy” value in series [1] and in series [3] was “B or more” each time.
On to `O=C(O)c1snnc1C1CC1` [Comparative compound IV, 4-cyclopropyl-1,2,3-thiadiazole-5-carboxylic acid], for which the melting point lay within 158 to 159 °C. In series [3], the “Rank of control efficacy” value is listed as “B (Control efficacy 89-80%)”. Also, in series [2], the “phytotoxicity for germination” value is “delay germination and suppressed growth”.
With `COC(=O)c1snnc1C1CC1` [III, methyl 4-cyclopropyl-1,2,3-thiadiazole-5-carboxylate], the melting point was determined as 47 °C.
